Experimental findings from ChEMBL document CHEMBL1201862, “PubChem BioAssay data set” (2004) are described below.

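Test compounds were applied to cells in 96-well plates for 48 hours at 5 doses. GI50 is the concentration that inhibits growth by half.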 The source made the active and inactive calls. Cut-off read from the data, not from the text of the source: active = GI50 up to about 1.1 µM and inactive = higher.

Holding throughout (assay): NCI anticancer screen, dose series, 48 h
The test system of assay [1] is HCC 2998.
The subject of assay [2] is HCT-116.
Assay [3] relates to SF-539.
Assay [4] has as its system SNB-19.
Assay [5] has as its system M14.
In assay [6] the test system is SK-MEL-28.
Assay [7] has as its system IGROV-1.
In assay [8] the test system is Hs-578T.
Assay [9] has as its system NCI-H226.
Assay [10] deals with Malme-3M.
Assay [11] has as its system MDA-N.
Assay [12] concerns A549.
Assay [13] concerns HL-60.
For assay [14], the system named is SK-OV-3.
Assay [15] relates to NCI-H23.
Assay [16] deals with SR.
The subject of assay [17] is HOP-92.
The subject of assay [18] is CAKI-1.
Assay [19] concerns NCI-H522.

As to `O=C(O)c1ccccc1/C=N\N(CCO)C1=NCCN1`, the GI50 in [1], in [2], in [3], in assay [4], in assay [5] and in assay [6] was > 100 µM (inactive) throughout. Further, the GI50 in [7], in assay [8], in assay [9], in assay [10], in assay [11] and in assay [12] was > 100 µM (inactive) in each case. Besides, the GI50 in [13], in [14], in assay [15], in assay [16] and in assay [17] was > 100 µM (inactive) each time.
For `Cc1ccc(S[C@@](C=O)(NC(=O)OCc2ccccc2)C(F)(F)F)cc1`, the GI50 in assay [1] is 37.8 µM (inactive); in [2], 16.1 µM (inactive); in assay [3], 24.7 µM (inactive); in assay [4], 21 µM (inactive); in assay [5], 29.1 µM (inactive); in assay [6], 25.3 µM (inactive). Besides, the GI50 is 18.5 µM (inactive) in [7]; 44.3 µM (inactive) in assay [8]; 18.6 µM (inactive) in [9]; 26.4 µM (inactive) in [10]; 26.1 µM (inactive) in [18]; 22.8 µM (inactive) in assay [11]. The GI50 in [12] is 21.2 µM (inactive); in [13], 16.5 µM (inactive); in [14] it was 45 µM (inactive); in [15], 19.5 µM (inactive); in assay [16], 14.5 µM (inactive); in assay [17], 22.9 µM (inactive).
Regarding `O=[N+]([O-])C(C=C(n1nnc2ccccc21)n1nnc2ccccc21)=C(n1nnc2ccccc21)n1nnc2ccccc21`, the GI50 in assay [1] is > 100 µM (inactive); in assay [2] it was 46.2 µM (inactive); in assay [3], > 100 µM (inactive); in assay [4], 0.975 µM (active); in assay [5], > 100 µM (inactive); in assay [7], > 100 µM (inactive). The GI50 was 58.5 µM (inactive) in [8]; > 100 µM (inactive) in assay [9]; > 100 µM (inactive) in assay [10]; > 100 µM (inactive) in assay [18]; > 100 µM (inactive) in [11]; > 100 µM (inactive) in [12]. In addition, the GI50 in assay [13] was 41 µM (inactive); in assay [14], > 100 µM (inactive); in [15], > 100 µM (inactive); in assay [16], 23 µM (inactive); in assay [17] it was 84.1 µM (inactive).
In the case of `CCCCOCCOCCOC1=C(Cl)C(=O)c2c(O)ccc(O)c2C1=O`, the GI50 in assay [1] is 2.1 µM (inactive); in assay [2], 0.401 µM (active); in assay [3], 1.51 µM (inactive); in [4], 1.77 µM (inactive); in assay [5] it was 0.161 µM (active); in assay [6], 0.357 µM (active). For the same molecule, the GI50 in assay [7] is 1.35 µM (inactive); in assay [8], 2.4 µM (inactive); in [9], 1.79 µM (inactive); in assay [10], 1.46 µM (inactive); in assay [18], 0.209 µM (active); in [11] it was 0.728 µM (active). Besides, the GI50 was 1.85 µM (inactive) in [12]; 0.144 µM (active) in assay [13]; 4.25 µM (inactive) in [14]; 0.984 µM (active) in [15]; < 0.01 µM (active) in [16]; 0.199 µM (active) in assay [17].
Take `O=C1CSC(c2ccc([N+](=O)[O-])cc2)N1c1ccc(-n2c(-c3ccccc3)nc3ccccc3c2=O)cc1` (centres undefined): the GI50 in [1] was 41 µM (inactive); in assay [2], 61.9 µM (inactive); in assay [3], 42.9 µM (inactive); in assay [4], > 100 µM (inactive); in [5] it was > 100 µM (inactive); in assay [6] it was > 100 µM (inactive). The GI50 in assay [7] was > 100 µM (inactive); in [8], > 100 µM (inactive); in [9], 2.96 µM (inactive); in assay [10], > 100 µM (inactive); in assay [18], 64.6 µM (inactive); in [11], > 100 µM (inactive). Besides, the GI50 in assay [12] is > 100 µM (inactive); in assay [13] it was > 100 µM (inactive); in [14], > 100 µM (inactive); in assay [15], > 100 µM (inactive); in [16], 14.6 µM (inactive); in assay [19], 40.8 µM (inactive).
For the molecule `O=C(O)CCC(NC(=O)c1ccc(CNc2nc3ccccc3nc2C(=O)O)cc1)C(=O)O` (centres undefined), the GI50 in assay [2], in assay [4], in assay [5], in [6], in assay [7] and in assay [8] was > 100 µM (inactive) throughout. For the same molecule, the GI50 in assay [9], in assay [10], in [11], in [12], in assay [14] and in assay [15] was > 100 µM (inactive) each time. Moreover, the GI50 in assay [16] is > 100 µM (inactive).
`Cc1cc2c(c(C(=O)NCC(=O)N[C@@H](C)C(=O)OCc3ccccc3)c1)Oc1c(cc(C)cc1C(=O)NCC(=O)N[C@@H](C)C(=O)OCc1ccccc1)S2`: the GI50 in assay [1] is 34.7 µM (inactive); in [2] it was > 100 µM (inactive); in [4], > 100 µM (inactive); in assay [5], > 100 µM (inactive); in [7], 99.1 µM (inactive); in assay [8], 26.2 µM (inactive). The GI50 is > 100 µM (inactive) in assay [9]; 16.1 µM (inactive) in assay [10]; > 100 µM (inactive) in assay [18]; > 100 µM (inactive) in assay [11]; > 100 µM (inactive) in assay [12]; > 100 µM (inactive) in assay [14]. The GI50 in assay [15] is > 100 µM (inactive); in assay [16] it was 17.8 µM (inactive).
For `c1cc2nnc1SCCCSc1ccc(nn1)SCCCSc1ccc(nn1)SCCCS2`, the GI50 is > 100 µM (inactive) in assay [1]; > 100 µM (inactive) in assay [2]; 82.4 µM (inactive) in assay [3]; 44.7 µM (inactive) in [4]; > 100 µM (inactive) in [5]; > 100 µM (inactive) in assay [6]. Also, the GI50 in [7] was > 100 µM (inactive); in [8], 32.4 µM (inactive); in assay [9], > 100 µM (inactive); in assay [10] it was > 100 µM (inactive); in assay [18] it was > 100 µM (inactive); in [11], > 100 µM (inactive). Besides, the GI50 in assay [12], in [13], in [14], in assay [15], in assay [16] and in assay [19] was > 100 µM (inactive) in each case.
For the molecule `C[C@H](NC(=O)CNC(=O)CCCCCC(=O)NCC(=O)N[C@@H](C)C(=O)OCc1ccccc1)C(=O)OCc1ccccc1`, the GI50 in assay [1], in assay [2], in [3], in assay [4], in [5] and in assay [6] was > 100 µM (inactive) in each case. The GI50 in assay [7], in assay [8], in assay [9], in assay [10], in [18] and in [11] was > 100 µM (inactive) each time. Besides, the GI50 in assay [12], in assay [14], in assay [15], in [16] and in assay [17] was > 100 µM (inactive) each time.
On to `Oc1ccc2ccccc2c1/N=N/c1ccc(/N=N/c2ccccc2)cc1`, for which the GI50 in assay [2] was 93.1 µM (inactive); in assay [4], > 100 µM (inactive); in [5], > 100 µM (inactive); in [6], > 100 µM (inactive); in assay [7], > 100 µM (inactive); in assay [8] it was > 100 µM (inactive). In addition, the GI50 was > 100 µM (inactive) in assay [9]; > 100 µM (inactive) in assay [10]; > 100 µM (inactive) in assay [18]; 50 µM (inactive) in assay [11]; 74.5 µM (inactive) in assay [12]; 0.43 µM (active) in [13]. The GI50 is > 100 µM (inactive) in assay [14], > 100 µM (inactive) in assay [15], 23.6 µM (inactive) in assay [16] and 86.3 µM (inactive) in [19].
`CC(C)(C)n1c(=O)n2c(-c3ccccc3)c(-c3ccccc3)n2c1=O`: the GI50 is 49.7 µM (inactive) in assay [1]; 25.4 µM (inactive) in assay [2]; 36.8 µM (inactive) in assay [3]; > 100 µM (inactive) in assay [4]; 37 µM (inactive) in [5]; > 100 µM (inactive) in assay [6]. Further, the GI50 in [7], in assay [8], in [9], in assay [10], in assay [18] and in assay [11] was > 100 µM (inactive) each time. In addition, the GI50 in [12] is 56.9 µM (inactive); in [13], 11.5 µM (inactive); in assay [14], > 100 µM (inactive); in [15], > 100 µM (inactive); in assay [17] it was > 100 µM (inactive); in [19], 17.5 µM (inactive).
